Data reported in patent US12310973B2, “Administration and dosage of diaminophenothiazines” (WisTa Laboratories Ltd., priority 2016, dated 2025).

System: mild to moderate AD patients
Test: Phase 3 trial in mild to moderate AD: safety outcomes (adverse events)
Format: in vivo, human
Details: for Maximum mean change in haemoglobin from baseline: at 6 weeks
Protocol: Patients were monitored throughout for adverse events (AEs) and clinical laboratory testing, physical and neurological examinations and 12-lead electrocardiograms were performed at all clinic visits (screening, baseline and Weeks 2, 6, 13, 26, 39, 52, 65 and 69). Patients were also assessed at all visits for suicidal ideation and intent, and were systematically assessed for signs of serotonin toxicity.

[1] = high dose LMTM (75 or 125 mg b.i.d.)

## CN(C)c1ccc2c(c1)Sc1cc(N(C)C)ccc1N2 [LMTM, leuco-methythioninium bis(hydromethanesulfonate)]
4 mg b.i.d.
  Maximum mean change in haemoglobin from baseline: -0.01 g/L
75 mg b.i.d. (n = 267)
  AESI: ARIA, %: (1.5) %
  AESI: Methemoglobinemia, hemolytic anemia, and/or Heinz bodies, %: (0) %
  AESI: “Serotonin syndrome”, %: (0.7) %
  Anemia, % of patients: (8.2%)
  Anemia, number of patients: 22
  At least one TEAE, % of patients: (83.9%)
  At least one TEAE, number of patients: 224
  Blood and lymphatic system disorders, % of patients: (10.9%)
  Blood and lymphatic system disorders, number of patients: 29
  Blood folate decreased, % of patients: (6.7%)
  Blood folate decreased, number of patients: 18
  Cough, % of patients: (5.2%)
  Cough, number of patients: 14
  Deaths, %: (1.1) %
  Diarrhea, % of patients: (23.6%)
  Diarrhea, number of patients: 63
  Dysuria, % of patients: (2.6%)
  Dysuria, number of patients: 7
  Gastrointestinal disorders, % of patients: (39.3%)
  Gastrointestinal disorders, number of patients: 105
  Infections and infestations, % of patients: (31.1%)
  Infections and infestations, number of patients: 83
  Investigations, % of patients: (32.6%)
  Investigations, number of patients: 87
  Nausea, % of patients: (8.2%)
  Nausea, number of patients: 22
  Other SUSARs, %: (0.7) %
  Pollakiuria, % of patients: (5.6%)
  Pollakiuria, number of patients: 15
  Renal and urinary disorders, % of patients: (22.8%)
  Renal and urinary disorders, number of patients: 61
  Respiratory, thoracic and mediastinal disorders, % of patients: (12.0%)
  Respiratory, thoracic and mediastinal disorders, number of patients: 32
  Urinary incontinence, % of patients: (6.7%)
  Urinary incontinence, number of patients: 18
  Urinary tract infection, % of patients: (10.9%)
  Urinary tract infection, number of patients: 29
  Vomiting, % of patients: (9.4%)
  Vomiting, number of patients: 25
75 mg b.i.d.
  Maximum mean change in haemoglobin from baseline: -0.47 g/L
125 mg b.i.d. (n = 264)
  AESI: ARIA, %: (0.4) %
  AESI: Methemoglobinemia, hemolytic anemia, and/or Heinz bodies, %: (0.4) %
  AESI: “Serotonin syndrome”, %: (0) %
  Anemia, % of patients: (5.7%)
  Anemia, number of patients: 15
  At least one TEAE, % of patients: (86.7%)
  At least one TEAE, number of patients: 229
  Blood and lymphatic system disorders, % of patients: (9.5%)
  Blood and lymphatic system disorders, number of patients: 25
  Blood folate decreased, % of patients: (7.2%)
  Blood folate decreased, number of patients: 19
  Cough, % of patients: (4.2%)
  Cough, number of patients: 11
  Deaths, %: (1.1) %
  Diarrhea, % of patients: (25.4%)
  Diarrhea, number of patients: 67
  Dysuria, % of patients: (10.2%)
  Dysuria, number of patients: 27
  Gastrointestinal disorders, % of patients: (42.0%)
  Gastrointestinal disorders, number of patients: 111
  Infections and infestations, % of patients: (28.8%)
  Infections and infestations, number of patients: 76
  Investigations, % of patients: (30.3%)
  Investigations, number of patients: 80
  Nausea, % of patients: (7.2%)
  Nausea, number of patients: 19
  Other SUSARs, %: (1.5) %
  Pollakiuria, % of patients: (6.8%)
  Pollakiuria, number of patients: 18
  Renal and urinary disorders, % of patients: (24.6%)
  Renal and urinary disorders, number of patients: 65
  Respiratory, thoracic and mediastinal disorders, % of patients: (8.3%)
  Respiratory, thoracic and mediastinal disorders, number of patients: 22
  Urinary incontinence, % of patients: (4.5%)
  Urinary incontinence, number of patients: 12
  Urinary tract infection, % of patients: (9.8%)
  Urinary tract infection, number of patients: 26
  Vomiting, % of patients: (6.8%)
  Vomiting, number of patients: 18
125 mg b.i.d.
  Maximum mean change in haemoglobin from baseline: -0.93 g/L
% of the cases, all arms
  Non-fatal SAEs possibly related to treatment: 14%
All arms
  Patients with transient responses indicating a wish to be dead (Columbia Suicide Severity Rating Scale): 26 patients
All arms, evenly distributed between the three treatment groups
  Patients with one or more other non-fatal serious adverse events (SAEs): 97 patients
All arms, no dose relationship
  Patients who developed ARIA during the study, frequency: < 1%
  Patients who developed ARIA during the study, total: 8 patients
All arms, none related to treatment
  Patients who died during the study: 9 patients
All doses
  Haemolytic anemia cases: no case of haemolytic anemia
Both treated with LMTM 75 mg b.i.d., no concomitant serotonergic drug
  Patients with transient symptoms consistent with serotonergic excess: 2 patients
Control 4 mg b.i.d. (n = 354)
  AESI: ARIA, %: (0.8) %
  AESI: Methemoglobinemia, hemolytic anemia, and/or Heinz bodies, %: (0.3) %
  AESI: “Serotonin syndrome”, %: (0) %
  Anemia, % of patients: (2.8%)
  Anemia, number of patients: 10
  At least one TEAE, % of patients: (83.6%)
  At least one TEAE, number of patients: 296
  Blood and lymphatic system disorders, % of patients: (4.8%)
  Blood and lymphatic system disorders, number of patients: 17
  Blood folate decreased, % of patients: (5.9%)
  Blood folate decreased, number of patients: 21
  Cough, % of patients: (3.4%)
  Cough, number of patients: 12
  Deaths, %: (0.8) %
  Diarrhea, % of patients: (9.3%)
  Diarrhea, number of patients: 33
  Dysuria, % of patients: (0.8%)
  Dysuria, number of patients: 3
  Gastrointestinal disorders, % of patients: (24.6%)
  Gastrointestinal disorders, number of patients: 87
  Infections and infestations, % of patients: (24.9%)
  Infections and infestations, number of patients: 88
  Investigations, % of patients: (22.6%)
  Investigations, number of patients: 80
  Nausea, % of patients: (4.0%)
  Nausea, number of patients: 14
  Other SUSARs, %: (0.6) %
  Pollakiuria, % of patients: (1.7%)
  Pollakiuria, number of patients: 6
  Renal and urinary disorders, % of patients: (8.2%)
  Renal and urinary disorders, number of patients: 29
  Respiratory, thoracic and mediastinal disorders, % of patients: (7.9%)
  Respiratory, thoracic and mediastinal disorders, number of patients: 28
  Urinary incontinence, % of patients: (2.5%)
  Urinary incontinence, number of patients: 9
  Urinary tract infection, % of patients: (8.2%)
  Urinary tract infection, number of patients: 29
  Vomiting, % of patients: (0.6%)
  Vomiting, number of patients: 2
Control (4 mg b.i.d.)
  Patients with anaemia-related adverse event terms (grouped): 16%
Control arm (4 mg b.i.d.)
  Convulsion (SAE possibly related to treatment), cases: 4
Control patients (4 mg b.i.d.)
  Patients discontinuing for gastrointestinal or urinary adverse events: 1-2%
High dose LMTM
  Patients with anaemia-related adverse event terms (grouped): 22%
[1]
  Patients discontinuing for gastrointestinal adverse events: 9%
  Patients discontinuing for urinary tract adverse events: 3%
Patients also receiving acetylcholinesterase inhibitors (data not shown)
  Incidence of gastrointestinal adverse events with co-medication: about two-fold higher
